Assay results: patent US20170355691A1, “PESTICIDALLY ACTIVE HETEROCYCLIC DERIVATIVES WITH SULPHUR CONTAINING SUBSTITUENTS” (Syngenta Participations AG, priority 2015, published 2017)

Key:
Assay type in all cases: in vivo
[1] = system: Diabrotica balteata (corn root worm); assay: Activity against Diabrotica balteata, maize sprouts (Example B3); settings: 96 h, L2 larvae on maize sprouts, 4 days after infestation, read-out: effect in at least one of the two categories (mortality or growth inhibition)
Experimental: Example B3: Activity Against Diabrotica balteata (Corn Root Worm)
Maize sprouts, placed on an agar layer in 24-well microtiter plates were treated with aqueous test solutions prepared from 10′000 ppm DMSO stock solutions by spraying. After drying, the plates were infested with L2 larvae (6 to 10 per well). The samples were assessed for mortality and growth inhibition in comparison to untreated samples 4 days after infestation. The following compounds gave an effect of at least 80% in at least one of the two categories (mortality or growth inhibition) at an application rate of 200 ppm: P1.1, P1.2, P1.6, P1.7, P1.8, P1.9, P1.10, P1.13, P1.14, P1.15, P1.16, P1.17 and P1.18.

[2] = system: Plutella xylostella (diamond back moth); assay: Activity against Plutella xylostella, artificial diet (Example B2); settings: 120 h, L2 larvae on artificial diet, 5 days after infestation, read-out: effect in at least one of the two categories (mortality or growth inhibition)
Experimental: Example B2: Activity Against Plutella xylostella (Diamond Back Moth)
24-well microtiter plates with artificial diet were treated with aqueous test solutions prepared from 10′000 ppm DMSO stock solutions by pipetting. After drying, the plates were infested with L2 larvae (10 to 15 per well). The samples were assessed for mortality and growth inhibition in comparison to untreated samples 5 days after infestation. The following compounds gave an effect of at least 80% in at least one of the two categories (mortality or growth inhibition) at an application rate of 200 ppm: P1.3, P1.6, P1.7, P1.8, P1.9, P1.13, P1.14, P1.15, P1.16, P1.17 and P1.18.

[3] = system: Myzus persicae (green peach aphid); assay: Activity against Myzus persicae, sunflower leaf disc spray (Example B5); settings: foliar, 144 h, mixed-age aphid population on sunflower leaf discs, 6 days after infestation
Experimental: Example B5: Activity Against Myzus persicae (Green Peach Aphid)
(§1) Sunflower leaf discs were placed on agar in a 24-well microtiter plate and sprayed with aqueous test solutions prepared from 10′000 ppm DMSO stock solutions. After drying, the leaf discs were infested with an aphid population of mixed ages. The samples were assessed for mortality 6 days after infestation.

[4] = system: Bemisia tabaci (cotton white fly); assay: Activity against Bemisia tabaci, cotton leaf disc spray (Example B6); settings: foliar, 144 h, adult white flies on cotton leaf discs, 6 days after incubation
Experimental: Example B6: Activity Against Bemisia tabaci (Cotton White Fly)
Cotton leaf discs were placed on agar in 24-well microtiter plates and sprayed with aqueous test solutions prepared from 10′000 ppm DMSO stock solutions. After drying the leaf discs were infested with adult white flies. The samples were checked for mortality 6 days after incubation.

[5] = system: Thrips tabaci (onion thrips); assay: Activity against Thrips tabaci, sunflower leaf disc spray (Example B9); settings: foliar, 144 h, mixed-age thrips population on sunflower leaf discs, 6 days after infestation
Experimental: Example B9: Activity Against Thrips tabaci (Onion Thrips)
as §1, with “in” for “in a”, “plates” for “plate”, “drying” for “drying,”, “a thrips” for “an aphid”

[6] = system: Spodoptera littoralis (Egyptian cotton leaf worm); assay: Activity against Spodoptera littoralis, cotton leaf disc spray (Example B1); settings: foliar, 72 h, L1 larvae on cotton leaf discs, 3 days after infestation, read-out: control in at least one of the three categories (mortality, anti-feedancy or growth inhibition)
Experimental: Example B1: Activity Against Spodoptera littoralis (Egyptian Cotton Leaf Worm)
Cotton leaf discs were placed on agar in 24-well microtiter plates and sprayed with aqueous test solutions prepared from 10′000 ppm DMSO stock solutions. After drying the leaf discs were infested with five L1 larvae. The samples were assessed for mortality, anti-feedant effect, and growth inhibition in comparison to untreated samples 3 days after infestation. Control of Spodoptera littoralis by a test sample is when at least one of mortality, anti-feedant effect, and growth inhibition is higher than the untreated sample. The following compounds gave an effect of at least 80% control in at least one of the three categories (mortality, anti-feedancy or growth inhibition) at an application rate of 200 ppm: P1.2, P1.3, P1.6, P1.7, P1.8, P1.9, P1.10, P1.12, P1.13, P1.14, P1.15, P1.16, P1.17 and P1.18.

[7] = system: Spodoptera littoralis (Egyptian cotton leaf worm); assay: Activity against Spodoptera littoralis, systemic via lettuce roots in agar (Example B4); settings: 144 h, 12.5 ppm in agar, uptake by lettuce roots, eggs, 6 days after infestation, read-out: control in at least one of the three categories (mortality, anti-feedancy or growth inhibition)
Excerpt: Example B4: Activity Against Spodoptera littoralis (Egyptian Cotton Leaf Worm)
Test compounds were applied by pipette from 10′000 ppm DMSO stock solutions into 24-well plates and mixed with agar. Lettuce seeds were placed on the agar and the multi well plate was closed by another plate which contains also agar. After 7 days the roots have absorbed the compound and the lettuce has grown into the lid plate. The lettuce leafs were now cut off into the lid plate. Spodoptera eggs were pipetted through a plastic stencil on a humid gel blotting paper and the plate closed with it. The samples were assessed for mortality, anti-feedant effect and growth inhibition in comparison to untreated samples 6 days after infestation. The following compound gave an effect of at least 80% control in at least one of the three categories (mortality, anti-feedancy or growth inhibition) at an application rate of 12.5 ppm: P1.17 and P1.18.

[8] = system: Tetranychus urticae (two-spotted spider mite); assay: whole plant or invertebrate; settings: foliar, 192 h
Experimental: Example B8: Activity Against Tetranychus urticae (Two-Spotted Spider Mite)
Bean leaf discs on agar in 24-well microtiter plates were sprayed with aqueous test solutions prepared from 10′000 ppm DMSO stock solutions. After drying the leaf discs were infested with a mite population of mixed ages. The samples were assessed for mortality on mixed population (mobile stages) 8 days after infestation.

[9] = system: Euschistus heros (neotropical brown stink bug); assay: Activity against Euschistus heros, soybean leaf spray (Example B7); settings: 120 h, N-2 nymphs on soybean leaf, 5 days after infestation
Experimental: Example B7: Activity Against Euschistus heros (Neotropical Brown Stink Bug)
Soybean leaf on agar in 24-well microtiter plates were sprayed with aqueous test solutions prepared from 10′000 ppm DMSO stock solutions. After drying the leaf were infested with N-2 nymphs. The samples were assessed for mortality 5 days after infestation.

[10] = system: Anopheles stephensi (Indian malaria mosquito); assay: Activity against Anopheles stephensi, dry deposit in tissue culture plates (Example B11); settings: 200 ppm in ethanol, adult females, after 48 h and/or 24 h
Experimental: Example B11: Activity Against Anopheles stephensi (Indian Malaria Mosquito)
Test solutions, at an application rate of 200 ppm in ethanol, were applied to 12 well tissue culture plates. Once the deposits were dry, five, two to five day old adult female Anopheles stephensi were added to each well, and sustained with a 10% sucrose solution in a cotton wool plug. Assessment of knockdown was made one hour after introduction, and mortality was assessed at 24 and 48 hours after introduction. The following compounds gave at least 80% control of Anopheles stephensi after 48 h and/or 24 h: P1.14.

SMILES	percent effect (mortality or growth inhibition) at 200 ppm [1] [%]	percent effect (mortality or growth inhibition) at 200 ppm [2] [%]	mortality at 200 ppm [3] [%]	mortality at 200 ppm [4] [%]	mortality at 200 ppm [5] [%]	percent control (mortality, anti-feedant effect or growth inhibition) at 200 ppm [6] [%]	percent control (mortality, anti-feedant effect or growth inhibition) at 12.5 ppm [7] [%]	mortality at 200 ppm [8] [%]	mortality at 200 ppm [9] [%]	control of Anopheles stephensi [10]
CCS(=O)(=O)c1cc(C(F)(F)F)ccc1-n1ncc(-c2ccc(C(F)(F)F)cc2)c1C [Compound P1.15, 1-[2-ethylsulfonyl-4-(trifluoromethyl)phenyl]-5-methyl-4-[4-(trifluoromethyl)phenyl]pyrazole]	≥ 80	≥ 80	≥ 80	≥ 80	≥ 80	≥ 80				
CCS(=O)(=O)c1cc(C(F)(F)F)cnc1-n1cc(-c2cncc(C(F)(F)F)c2)cn1 [Compound P1.18]	≥ 80	≥ 80	≥ 80			≥ 80	≥ 80			
CCSc1cc(C(F)(F)F)cnc1-n1ncc(-c2cccc(C(F)(F)F)c2)c1C [Compound P1.1, 3-ethylsulfanyl-2-[5-methyl-4-[3-(trifluoromethyl)phenyl]pyrazol-1-yl]-5-(trifluoromethyl)pyridine]	≥ 80							≥ 80		
CCS(=O)(=O)c1cc(C(F)(F)F)ccc1-n1cc(-c2cncc(C(F)(F)F)c2)cn1 [Compound P1.17]	≥ 80	≥ 80	≥ 80	≥ 80		≥ 80	≥ 80		≥ 80	
CCS(=O)(=O)c1cc(C(F)(F)F)ccc1-n1cc(-c2ccc(C(F)(F)F)nc2)cn1 [Compound P1.14]	≥ 80	≥ 80	≥ 80			≥ 80			≥ 80	at least 80%
